Results taken from the NIST ThermoML archive (doi:10.1021/je900137r).
Numbers after ± are expanded uncertainties.

Assay: Molar enthalpy of transition or fusion
Details: Crystal; Adiabatic calorimetry

## CCC [propane]
  Molar enthalpy of transition or fusion: 0.838 ± 0.00956 kcal/mol
